Measurements reported in US20230097753A1, “ALPHA-HYDROXYLATED FATTY-ACID METABOLITES, MEDICAL USES AND USE AS BIOMARKERS” (UNIVERSITAT DE LES ILLES BALEARS, priority 2020, published 2023).

Assay: Brain fatty acid levels in WT and 5xFAD mice after chronic oral treatment
Format: in vivo, mouse
Details: for Brain levels after treatment with DHA-H sodium salt: oral 5-200 mg/kg, 4 months
Procedure: FIG. 2. […] Brain levels of HPA (Al) or DHA (A2) (nmoles/mg of protein) are represented in the ordinate axis, with respect to treatment doses with the sodium salt of DHA-H (A1) and the sodium salt of DHA (A1 and A2) (mg/kg). A1: • animals WT; ∘ 5xFAD. A2: Black bars refer to WT animals and white bars to 5xFAD. The levels of HPA and DHA were determined in the brain of WT and 5xFAD mice after chronic administration of DHA-H sodium salt (4 months; 5 doses/week M-F; between 3 and 7 months of age; sacrifice at 7 months). HPA accumulates in the brain of both mouse strains similarly, depending on the dose of DHA-H sodium salt administered (A1: • r2=0.9292, p=0.0002; ∘ r2=0.9704, p<0.0001). […] Data are shown as mean±standard error, and statistical analysis was done by one-way ANOVA and Tukey multiple evaluation test: *p<0.05 compared to control (mice treated with vehicle). Therefore, when the prodrug DHA-H, in particular its sodium salt, is administered in healthy mice and transgenic models of Alzheimer's disease, a significant accumulation of HPA occurs at the brain level, without the presence of the prodrug (DHA-H) being detected, nor changes in endogenous levels of DHA. […] The number of total errors (B1), reference memory errors (RME) (B2) or working memory errors (WME) (B3), committed, are represented in the ordinate axis against the brain levels of HPA (nmol/mg of protein) in the abscissa axis. The cognitive assessment was done by testing the 8-arm radial labyrinth during the last month of treatment of the same animals shown in FIG. 2A. Individual experimental points from the entire study animal population were plotted and the data from the 5xFAD animals were adjusted to an inverse polynomial regression f(x)=y0+(a/x). The values of r^2 and p corresponding to the regression of each parameter are shown below: total errors, RME and WME versus the brain concentration of HPA: C1: r^2=0.9146 and p=0.0311; C2: r^2=0.9252 and p=0.0243; C3: r^2=0.7785 and p=0.0346. […]

| Brain DHA levels after treatment | Brain levels after treatment with DHA-H sodium salt | SMILES |
| --- | --- | --- |
| did not vary significantly | undetectable in the brain | CCC=CCC=CCC=CCC=CCC=CCC=CCC(O)C(=O)O (stereo not drawn) [DHA-H, 2-hydroxy-drocosahexaenoic acid] |
|  | dose-dependent brain accumulation | CC/C=C\C/C=C\C/C=C\C/C=C\C/C=C\CCCCC(=O)O [HPA, (6Z,9Z,12Z,15Z,18Z)-heneicosa-6,9,12,15,18-pentaenoic acid] |
